Key:
DUB = assay: Experiment 3: DUB reporter Z-LRGG-AMC with control, 5011 and DMC-2 treated lysates; type: biochemical
Method: Peptide used was the commercial DUB reporter [Z-LRGG-AMC (SEQ ID NO: 1)] at multiple concentrations [50-150 uM]. 1100 uL protein at 6 mg/mL for each set was given. Final protein concentration in micro-wells was 4 mg/mL. Peptide was incubated with control, 5011 treated, 1 ug/mL DMC-2, 10 ug/mL DMC-2, and 30 ug/mL DMC-2 in DUB assay buffer. Fluorometric readings were taken at different time points in plate reader. Measured at [Em 460/Ex 355]. Fluorescent signals were converted to μM/min using a calibration curve for the AMC fluorophore. Rates were plotted vs. substrate concentration (Z-LRGG-AMC peptide (SEQ ID NO: 1)) (FIG. 10). […] The curves are not perfect logarithmic curves but we can observe the trend. The results with different concentrations of DMC-2 were further plotted. When compared with control: the 5011 treatment enhances DUB activity, DMC-2 being the active part of 5011, also enhances the DUB activity. From FIG. 11, the lowest concentration of DMC2-1 μg/mL has most effect on DUB activity when compared to 30 μg/mL. Without wishing to be bound by theory, some data fluctuation with DMC-2 can occur in the 1 μg/mL range.

[1] = system: deubiquitinating enzymes (DUBs); assay: DUB activity (Z-LRGG-AMC cleavage) in lysates of treated MM.1S cells; type: cell-based; settings: for Vmax / effect on DUB activity vs DMSO control / Km / n (Hill coefficient): 16 h
Method: (§1) OPM2 cells were maintained in RPMI 1640 media supplemented with 12% FBS, 21.8 mM glucose, 8.6 mM HEPES (pH 7.4) and 1.0 mM sodium pyruvate. MM.1S cell line were maintained in RPMI 1640 media supplemented with 10% FBS. The cells were all cultured in T175 flasks (VWR, Radnor, Pa.). All media components were from Corning, Atlanta, Ga. unless otherwise noted. To test the effect of the ethanolic extract and bioactive compounds on DUB activity, cells were exposed to a 16-h pretreatment with 10 μg/mL of PMI-5011 and 1, 10, 30 μg/mL concentrations of DMC-1, DMC-2, KOE, and davidigenin before lysing the cells for experimentation. All compounds were reconstituted in DMSO to obtain stock concentrations, which was further diluted in culture media to obtain the desired experimental concentrations. For vehicle control, a subpopulation of cells was treated with pure DMSO diluted in a similar manner for the same duration. Upon treatment, cell lysates (both OPM2 and MM.1S) were generated by harvesting 1×10^6 cells/mL, followed by washing 2× and pelleting in phosphate buffered saline (PBS; 137 mM NaCl, 10 mM Na2HPO4, […], and 1.75 mM KH2PO4 at pH 7.4). The cell pellet was re-suspended in an approximately equivalent volume of M-PER to the volume of the cell pellet (1000-2000 μL) then vortexed for 10 min at room temperature. Following this, the mixture was centrifuged at 14,000×g for 15 min at 4° C. and the supernatant transferred to a centrifuge tube and stored on ice until use. Total protein concentration was determined using a NanoDrop 2000c (Thermo Scientific, Madison, Wis.).
(§2) The commercial DUB reporter, Z-LRGG-AMC (substrate) (SEQ ID NO: 1) was reconstituted in DMSO to obtain a final stock concentration of 1.44 mM. This stock reporter was diluted as needed in assay buffer (50 mM HEPES, pH 7.4, 150 mM NaCl, 2 mM DTT, and 0.02% Tween-20) supplemented with 4 mg/mL cell lysates (source of DUBs) to reach the desired reporter concentration with a final volume of 100 μL in a 96-well plate. OPM2 and MM.1S cell lysates from different treatments (10 μg/mL of PMI-5011; 1, 10, and 30 μg/mL of DMC-1, DMC-2, KOE, davidigenin and control vehicle DMSO) and C2C12 cell lysates were used to interrogate the effect of the ethanolic extract and selected bioactive compounds on DUB activity. Reporter only and lysates only (noise/background) samples were included in the 96-well plate to confirm that the rates observed were due to DUB-mediated hydrolysis initiated by the cell lysates. The 96-well plate was maintained at a temperature of 30° C. in the dark for the duration of the experiment. The fluorescence signals emitted as a result of DUB-mediated cleavage of AMC (λex=355 nm and λem=460 nm) were quantified using a Wallac 1420 VICTOR2 multilabel HTS counter fluorometry (Perkin Elmer (Waltham, Mass.). Readings were collected every 30 min for 6 h. The normalized signals were obtained by comparing the treatment with noise and background fluorescence values which were then statistically analyzed for their significance. Each data point represents triplicate data points from duplicate experiments. A calibration curve was generated for known concentrations of AMC to correlate the fluorescence signal (AU) to concentration (μM). The approximate concentration of free fluorophore was used to calculate reaction rates (μM/min) for each substrate concentration using linear regression analysis.
(§3) All data visualization, interpretation and curve-fittings were performed using Origin Pro (OriginLab, Northampton, MA) while statistical analyses of experimental data were carried out using SAS 9.4 (SAS Solutions). The analyses of enzyme-substrate reactions in all cell lysates started with scatter plotting the fluorometry signals (p,M) measured for each substrate concentration against time (min). Fluorescence signals measured for each substrate concentration remained stable during the first 30 min, indicating there was a 30-minute lag period before reaction initiation. […]

[2] = system: deubiquitinating enzymes (DUBs); assay: DUB activity (Z-LRGG-AMC cleavage) in lysates of treated OPM2 cells; type: cell-based; settings: for Vmax / effect on DUB activity vs DMSO control / Km / n (Hill coefficient): 16 h
Method: as §1, §2, §3

How did the “concentration with most effect on DUB activity” value (DUB; compared to 30 μg/mL) turn out when `COc1ccc(CCC(=O)c2ccc(O)cc2O)cc1` [DMC-2, 1-(2,4-dihydroxyphenyl)-3-(4-methoxyphenyl)propan-1-one] was run?
Its value is 1 µg/mL.

And the “effect on DUB activity vs control” value (DUB; treated lysates 4 mg/mL, DMC-2 at 1, 10, 30 ug/mL)?
The value was “enhances”.

What about the Vmax ([1]; 1 μg/mL) of the same compound?
The Vmax was 22.70 ± 1.71 µM/min.

And the “effect on DUB activity vs DMSO control” value ([1]; 1 μg/mL)?
Its value is “significantly enhanced”.

And the Vmax ([1]; 10 μg/mL)?
The Vmax was 18.13 ± 0.14 µM/min.

And the “effect on DUB activity vs DMSO control” value ([1]; 10 μg/mL)?
Its value is “significantly enhanced”.

And the Vmax ([1]; 30 μg/mL)?
The Vmax was 18.12 ± 7.21 µM/min.

What about the “effect on DUB activity vs DMSO control” value ([1]; 30 μg/mL) of the same compound?
Its value is “significantly enhanced”.

And the “effect of increasing concentration on DUB activity (normalized Vmax)” value ([1]; 1, 10, 30 μg/mL, regression fit)?
The value was “negative linear effect”.

And the Km ([1]; Table 2, 1 μg/mL)?
The Km was 44.8 µM.

And the Vmax ([1]; Table 2, 1 μg/mL)?
The Vmax was 0.0227 µM/min.

And the “n (Hill coefficient)” value ([1]; Table 2, 1 μg/mL)?
The value was roughly 1.00.

And the Km ([1]; Table 2, 10 μg/mL)?
The Km was 39.4 µM.

And the Vmax ([1]; Table 2, 10 μg/mL)?
Its Vmax is 0.0181 µM/min.

What about the “n (Hill coefficient)” value ([1]; Table 2, 10 μg/mL) of the same compound?
Its value is 1.68.

What about the Km ([1]; Table 2, 30 μg/mL) of the same compound?
The Km was 42.2 µM.

What about the Vmax ([1]; Table 2, 30 μg/mL) of the same compound?
The Vmax was 0.0181 µM/min.

What about the “n (Hill coefficient)” value ([1]; Table 2, 30 μg/mL) of the same compound?
The value was 1.06.

And the Vmax ([2]; OPM2, 1 μg/mL)?
The Vmax was 21.38 ± 2.68 µM/min.

And the “effect on DUB activity vs DMSO control” value ([2]; OPM2, 1 μg/mL)?
The value was “significantly enhanced”.

What about the Vmax ([2]; OPM2, 10 μg/mL) of the same compound?
The Vmax was 22.71 ± 1.64 µM/min.

What about the “effect on DUB activity vs DMSO control” value ([2]; OPM2, 10 μg/mL) of the same compound?
Its value is “significantly enhanced”.

What about the Vmax ([2]; OPM2, 30 μg/mL) of the same compound?
The Vmax was 184.79 ± 22.09 µM/min.

What about the “effect on DUB activity vs DMSO control” value ([2]; OPM2, 30 μg/mL) of the same compound?
Its value is “significantly enhanced”.

What about the “effect of increasing concentration on DUB activity (normalized Vmax)” value ([2]; OPM2, 1, 10, 30 μg/mL, regression fit) of the same compound?
The value was “exponential increase”.

What about the Km ([2]; Table 2, OPM-2, 1 μg/mL) of the same compound?
The Km was 44.8 µM.

What about the “n (Hill coefficient)” value ([2]; Table 2, OPM-2, 1 μg/mL) of the same compound?
Its value is 1.47.

What about the Vmax ([2]; Table 2, OPM-2, 1 μg/mL, in µM/min) of the same compound?
The Vmax was 21.38.

And the Km ([2]; Table 2, OPM-2, 10 μg/mL)?
The Km was 35.5 µM.

And the “n (Hill coefficient)” value ([2]; Table 2, OPM-2, 10 μg/mL)?
The value was 1.59.

And the Vmax ([2]; Table 2, OPM-2, 10 μg/mL, in µM/min)?
The Vmax was 22.71.

And the Km ([2]; Table 2, OPM-2, 30 μg/mL)?
The Km was 48.2 µM.

And the “n (Hill coefficient)” value ([2]; Table 2, OPM-2, 30 μg/mL)?
The value was 1.49.

What about the Vmax ([2]; Table 2, OPM-2, 30 μg/mL, in µM/min) of the same compound?
The Vmax was 184.79.
